According to patent US20100298141A1, “SUBSTITUTED PYRIDINE N-OXIDE HERBICIDES” (E. I. DU PONT DE NEMOURS AND COMPANY, priority 2007, published 2010):

Columns and labels:
[1] = system: crabgrass; assay: Test A pre-/postemergence greenhouse test; type: in vivo, Digitaria sanguinalis; settings: for Crabgrass, Large plant response rating: 0 to 100 scale
How it was run: (§1)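 Greenhouse herbicide screen, pre- and postemergence in parallel. Soil: loam plus sand. Formulation: non-phytotoxic solvent mix with surfactant. Postemergence stage: one to two leaves, 2–10 cm height. Evaluation: visual injury, compared with untreated controls, about 10 days after treatment.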

[2] = system: corn; assay: Test A pre-/postemergence greenhouse test; type: in vivo, Zea mays; settings: for Corn plant response rating: 0 to 100 scale
How it was run: as §1

[3] = system: wheat; assay: Test A pre-/postemergence greenhouse test; type: in vivo, Triticum aestivum; settings: for Wheat plant response rating: 0 to 100 scale
How it was run: as §1

[4] = system: barnyardgrass; assay: Test C flooded paddy test; type: in vivo, Echinochloa crus-galli; settings: Flood
How it was run: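 Greenhouse pots flooded to 3 cm above soil at time of treatment received compound via the water, which stayed at that level.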

[5] = system: pigweed; assay: Test C pre-/postemergence test; type: in vivo, Amaranthus retroflexus; settings: for Plant response rating, Pigweed: scale 0 to 100, 0 no effect, 100 complete control
How it was run: (§2)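 Test chemicals were formulated with surfactant in a non-phytotoxic solvent and sprayed both on freshly planted seeds (preemergence) and on 1- to 4-leaf plants of 2–18 cm (postemergence). Flooded-paddy pots received compound directly into 3 cm of standing water, maintained for the test.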

[6] = system: Goosegrass; assay: Test C pre-/postemergence test; type: in vivo, Eleusin indica; settings: for Plant response rating, Goosegrass: scale 0 to 100, 0 no effect, 100 complete control
How it was run: as §2

[7] = system: giant foxtail; assay: Test A pre-/postemergence greenhouse test; type: in vivo, Setaria faberi; settings: for Foxtail, Giant plant response rating: 0 to 100 scale
How it was run: as §1

[8] = system: morningglory; assay: Test C pre-/postemergence test; type: in vivo, Ipomoea coccinea; settings: for Plant response rating, Morningglory: Postemergence, scale 0 to 100, 0 no effect, 100 complete control
How it was run: as §2

[9] = system: bermudagrass; assay: Test C pre-/postemergence test; type: in vivo, Cynodon dactylon; settings: for Plant response rating, Bermudagrass: scale 0 to 100, 0 no effect, 100 complete control
How it was run: as §2

[10] = system: soybean; assay: Test C pre-/postemergence test; type: in vivo, Glycine max; settings: for Plant response rating, Soybean: scale 0 to 100, 0 no effect, 100 complete control
How it was run: as §2

[11] = system: Italian ryegrass; assay: Test C pre-/postemergence test; type: in vivo, Lolium multiflorum; settings: for Ryegrass, Italian plant response rating: preemergence, scale 0 (no effect) to 100 (complete control); for Plant response rating, Ryegrass, Italian: scale 0 to 100, 0 no effect, 100 complete control
How it was run: as §2

[12] = system: morningglory; assay: Test A pre-/postemergence greenhouse test; type: in vivo, Ipomoea spp.; settings: for Morningglory plant response rating: 0 to 100 scale
How it was run: as §1

[13] = system: catchweed bedstraw; assay: Test C pre-/postemergence test; type: in vivo, Galium aparine
From the text: Seeds of plant species selected from blackgrass (Alopecurus myosuroides), downy brome (Bromus tectorum), green foxtail (Setaria viridis), Italian ryegrass (Lolium multiflorum), wheat (Triticum aestivum), wild oat (Avena fatua), catchweed bedstraw (Galium aparine), Russian thistle (Salsola kali), […] (Cynodon dactylon), Surinam grass (Brachiaria decumbens), cocklebur (Xanthium strumarium), corn (Zea mays), crabgrass (Digitaria sanguinalis), woolly cupgrass (Eriochloa villosa), giant foxtail (Setaria faberii), Goosegrass (Eleusin indica), johnsongrass (Sorghum halepense), kochia (Kochia scoparia), lambsquarters (Chenopodium album), morningglory (Ipomoea coccinea), eastern black nightshade (Solanum ptycanthum), yellow nutsedge (Cyperus esculentus), pigweed (Amaranthus retroflexus), common ragweed (Ambrosia elation), soybean (Glycine max), common (oilseed) sunflower (Helianthus annuus), and velvetleaf (Abutilon theophrasti) were planted and treated preemergence with test chemicals formulated in a non-phytotoxic solvent mixture which included a surfactant. At the same time, plants selected from these crop and weed species and also winter barley (Hordeum vulgare), canarygrass (Phalaris minor), and chickweed (Stellaria media) were treated with postemergence applications of some of the test chemicals formulated in the same manner. Plants ranged in height from 2 to 18 cm (1- to 4-leaf stage) for postemergence treatments. […] At time of treatment, test pots were flooded to 3 cm above the soil surface, treated by application of test compounds directly to the paddy water, and then maintained at that water depth for the duration of the test. […] A dash (-) response means no test result.

[14] = system: yellow nutsedge; assay: Test C pre-/postemergence test; type: in vivo, Cyperus esculentus; settings: for Plant response rating, Nutsedge, Yellow: scale 0 to 100, 0 no effect, 100 complete control
How it was run: as §2

[15] = system: common (oilseed) sunflower; assay: Test C pre-/postemergence test; type: in vivo, Helianthus annuus; settings: for Sunflower plant response rating: preemergence, scale 0 (no effect) to 100 (complete control)
How it was run: as §2

[16] = system: wheat; assay: Test C pre-/postemergence test; type: in vivo, Triticum aestivum; settings: for Wheat plant response rating: preemergence, scale 0 (no effect) to 100 (complete control); for Plant response rating, Wheat: scale 0 to 100, 0 no effect, 100 complete control
How it was run: as §2

[17] = Postemergence, 125 g ai/ha, 0 is no effect, 100 is complete control
[18] = Postemergence, 500 g ai/ha, 0 is no effect, 100 is complete control
[19] = Preemergence, 125 g ai/ha, 0 no effect, 100 complete control
[20] = Preemergence, 500 g ai/ha, 0 to 100 scale where 0 is no effect and 100 is complete control
[21] = 31 g ai/ha, Preemergence, scale 0 to 100
[22] = 62 g ai/ha, preemergence, scale 0 (no effect) to 100 (complete control)
[23] = preemergence, 125 g ai/ha, scale 0 (no effect) to 100 (complete control)

Cc1cc[n+]([O-])c(S(=O)(=O)Cc2c(C(F)(F)F)nn(C)c2OC(F)F)c1 [Compound 2]
80: Goosegrass plant response rating [6, 21] | Foxtail, Giant plant response rating [7, 17] | Morningglory plant response rating [12, 19] | Sunflower plant response rating ([15]; 125 g ai/ha)
70: Crabgrass, Large plant response rating [1, 17] | Wheat plant response rating [3, 18] | Plant response rating, Wheat [3, 20] | Plant response rating (0 to 100), Soybean ([10]; Preemergence, 250 g ai/ha) | Wheat plant response rating ([16]; 125 g ai/ha)
30: Plant response rating, Morningglory ([8]; 250 g ai/ha)
95: Galium plant response rating [13, 22] | Nutsedge, Yellow plant response rating [14, 22] | Nutsedge, Yellow plant response rating [14, 23]
85: Plant response rating, Barnyardgrass ([4]; 250 g ai/ha, scale 0 to 100 (0 no effect, 100 complete control)) | Morningglory plant response rating [8, 21] | Galium plant response rating [13, 21]
0: Corn plant response rating [2, 19] | Plant response rating, Barnyardgrass ([4]; 31 g ai/ha, scale 0 to 100 (0 no effect, 100 complete control)) | Plant response rating, Barnyardgrass ([4]; 62 g ai/ha, scale 0 to 100, 0 no effect, 100 complete control, 13 to 15 days) | Plant response rating (0 to 100), Pigweed ([5]; Postemergence, 31 g ai/ha) | Plant response rating (0 to 100), Pigweed ([5]; Postemergence, 62 g ai/ha) | Plant response rating, Pigweed ([5]; Postemergence, 125 g ai/ha) | Plant response rating, Pigweed ([5]; Postemergence, 250 g ai/ha) | Plant response rating (0 to 100), Goosegrass ([6]; Postemergence, 31 g ai/ha) | Plant response rating, Goosegrass ([6]; Postemergence, 62 g ai/ha) | Plant response rating, Goosegrass ([6]; Postemergence, 125 g ai/ha) | Plant response rating, Goosegrass ([6]; Postemergence, 250 g ai/ha) | Plant response rating (0 to 100), Bermudagrass ([9]; Postemergence, 31 g ai/ha) | Plant response rating, Bermudagrass ([9]; Postemergence, 62 g ai/ha) | Plant response rating, Bermudagrass ([9]; Postemergence, 125 g ai/ha) | Plant response rating (0 to 100), Ryegrass, Italian ([11]; Postemergence, 31 g ai/ha) | Plant response rating (0 to 100), Ryegrass, Italian ([11]; Postemergence, 62 g ai/ha) | Plant response rating, Ryegrass, Italian ([11]; Postemergence, 125 g ai/ha) | Plant response rating, Ryegrass, Italian ([11]; Postemergence, 250 g ai/ha) | Nutsedge, Yellow plant response rating [14, 21] | Plant response rating (0 to 100), Nutsedge, Yellow ([14]; Postemergence, 31 g ai/ha) | Plant response rating, Nutsedge, Yellow ([14]; Postemergence, 62 g ai/ha) | Plant response rating, Nutsedge, Yellow ([14]; Postemergence, 125 g ai/ha) | Plant response rating, Nutsedge, Yellow ([14]; Postemergence, 250 g ai/ha) | Wheat plant response rating ([16]; 62 g ai/ha) | Plant response rating (0 to 100), Wheat ([16]; Postemergence, 31 g ai/ha) | Plant response rating (0 to 100), Wheat ([16]; Postemergence, 62 g ai/ha) | Plant response rating, Wheat ([16]; Postemergence, 125 g ai/ha) | Plant response rating, Wheat ([16]; Postemergence, 250 g ai/ha)
40: Plant response rating, Corn [2, 20] | Wheat plant response rating [3, 19] | Plant response rating, Bermudagrass ([9]; Postemergence, 250 g ai/ha) | Plant response rating (0 to 100), Soybean ([10]; Postemergence, 31 g ai/ha)
100: Plant response rating, Crabgrass, Large [1, 20] | Pigweed plant response rating [5, 21] | Pigweed plant response rating [5, 22] | Plant response rating (0 to 100), Pigweed ([5]; Preemergence, 250 g ai/ha) | Pigweed plant response rating [5, 23] | Goosegrass plant response rating [6, 22] | Plant response rating (0 to 100), Goosegrass ([6]; Preemergence, 250 g ai/ha) | Goosegrass plant response rating [6, 23] | Foxtail, Giant plant response rating [7, 19] | Plant response rating, Foxtail, Giant [7, 20] | Morningglory plant response rating [8, 22] | Plant response rating (0 to 100), Morningglory ([8]; Preemergence, 250 g ai/ha) | Morningglory plant response rating [8, 23] | Bermudagrass plant response rating [9, 21] | Bermudagrass plant response rating [9, 22] | Plant response rating (0 to 100), Bermudagrass ([9]; Preemergence, 250 g ai/ha) | Bermudagrass plant response rating [9, 23] | Plant response rating (0 to 100), Ryegrass, Italian ([11]; Preemergence, 250 g ai/ha) | Morningglory plant response rating [12, 18] | Plant response rating (0 to 100), Galium ([13]; Preemergence, 250 g ai/ha) | Galium plant response rating [13, 23] | Plant response rating (0 to 100), Nutsedge, Yellow ([14]; Preemergence, 250 g ai/ha) | Plant response rating (0 to 100), Sunflower ([15]; Preemergence, 250 g ai/ha)
50: Plant response rating (0 to 100), Soybean ([10]; Postemergence, 62 g ai/ha) | Plant response rating, Soybean ([10]; Postemergence, 125 g ai/ha) | Plant response rating, Soybean ([10]; Postemergence, 250 g ai/ha) | Soybean plant response rating [10, 23] | Ryegrass, Italian plant response rating ([11]; 62 g ai/ha) | Ryegrass, Italian plant response rating ([11]; 125 g ai/ha)
55: Plant response rating, Barnyardgrass ([4]; 125 g ai/ha, scale 0 to 100, 0 no effect, 100 complete control, 13 to 15 days)
5: Plant response rating, Morningglory ([8]; 62 g ai/ha) | Plant response rating, Morningglory ([8]; 125 g ai/ha) | Sunflower plant response rating ([15]; 62 g ai/ha)
98: Plant response rating (0 to 100), Wheat ([16]; Preemergence, 250 g ai/ha)
90: Crabgrass, Large plant response rating [1, 18] | Crabgrass, Large plant response rating [1, 19] | Foxtail, Giant plant response rating [7, 18] | Plant response rating, Morningglory [12, 20]
60: Corn plant response rating [2, 17] | Corn plant response rating [2, 18] | Wheat plant response rating [3, 17] | Morningglory plant response rating [12, 17]
